Laboratory results reported in patent US4138554A, “7-[D-α-(4-Hydroxy-1,5-naphthyridine-3-carboxamido)-α-phenyl (and p-hydroxyphenyl)acetamido]-3-carbamoyloxymethyl-3-cephem-4-carboxylic acids” (priority 1977, dated 1979).
In brackets after ≈: the same amount, converted by molar mass. Read-outs that look alike come from different tables or passages of the source.

Columns and labels:
Pseudomonas sp. = test: MIC by serial two-fold agar dilution (Mueller-Hinton agar), Pseudomonas sp.; type: cell-based; settings: Pseudomonas sp. A20358, Table 6
Protocol: (§1) Minimum inhibitory concentrations (MIC) of cephalosporins in the present study were determined by serial two-fold agar dilution method using Steers' apparatus on Mueller-Hinton agar plate against 31 test organisms for the primary screening and also against 61 strains of Pseudomonas aeruginosa for the secondary evaluation.

S. enteritidis = test: MIC by serial two-fold agar dilution (Mueller-Hinton agar), S. enteritidis; type: cell-based
Protocol: (§2) Minimum inhibitory concentrations (MIC) of BB-S520 were determined by serial two-fold agar dilution method using Steers' apparatus on Meuller-Hinton agar plate against 31 test organisms for the primary screening and also against 61 strains of Pseudomonas aeruginosa for the secondary evaluation. The results are shown in Table 1 and Table 2 along with those of BB-S514 and sulbenicillin.
as §1

[1] = test system: Gram-positive (6 strains); test: Mean % relative activity (MIC) vs sulbenicillin, Gram-positive (6 strains); type: cell-based; settings: for Mean % Relative Activity (SPBC = 100%): G (+) (6 strains); for Mean % Relative Activity (Sulbenicillin = 100%): Gram-positive (6 strains), from geometric means of MICs in Table 1
Protocol: as §2, §1

[2] = test system: Gram-negative (19 strains); test: Mean % relative activity (MIC) vs sulbenicillin, Gram-negative (19 strains); type: cell-based; settings: for Mean % Relative Activity (SPBC = 100%): G (-) (19 strains); for Mean % Relative Activity (Sulbenicillin = 100%): Gram-negative (19 strains), from geometric means of MICs in Table 1
Protocol: as §2, §1

S. marcescens = test: MIC by serial two-fold agar dilution (Mueller-Hinton agar), S. marcescens; type: cell-based
Protocol: as §2, §1

E. cloacae = test: MIC by serial two-fold agar dilution (Mueller-Hinton agar), E. cloacae; type: cell-based; settings: Enterobacter cloacae
Protocol: as §2, §1

P. morganii = test: MIC by serial two-fold agar dilution (Mueller-Hinton agar), P. morganii; type: cell-based
Protocol: as §2, §1

E. coli Juhl = test: Median curative dose in mice, infection with E. coli Juhl; type: in vivo; settings: Escherichia coli, sc
Source text: Median Curative Dose in Mgm./Kg.
Upon Subcutaneous Injection in Mice

P. mirabilis = test: MIC by serial two-fold agar dilution (Mueller-Hinton agar), P. mirabilis; type: cell-based
Protocol: as §2, §1

[3] = Mouse blood levels after subcutaneous injection; type: in vivo; settings: sc
Source text: |Mouse Blood Levels | Blood Levels in Mcg./Ml. at | Indicated Hours After Subcu- |Dose in taneous Injection

[4] = mice, E. coli Juhl infection, Table 5, read-out: PD50
[5] = Salmonella enterica, S. enteritidis, Table 1, read-out: MIC
[6] = Serratia marcescens, S. marcescens, Table 1, read-out: MIC
[7] = Morganella morganii, P. morganii, Table 1, read-out: MIC
[8] = Proteus mirabilis, P. mirabilis, Table 1, read-out: MIC
[9] = subcutaneous injection in mice, E. coli Juhl, Table 4, read-out: Median Curative Dose (PD50)

| Structure (SMILES) | MIC (Pseudomonas sp.) | MIC (E. cloacae; E. cloacae A9656, Table 6) | MIC (E. cloacae; E. cloacae A9657, Table 6) | MIC (E. cloacae; E. cloacae A9659, Table 6) | ED50 (E. coli Juhl; [4]) | MIC (S. enteritidis; [5]) | Mean % Relative Activity (Sulbenicillin = 100%) [1] | Mean % Relative Activity (Sulbenicillin = 100%) [2] | MIC (S. marcescens; [6]) | MIC (E. cloacae; E. cloacae (1st line), Table 1) | MIC (E. cloacae; E. cloacae (2nd line), Table 1) | MIC (E. cloacae; E. cloacae (3rd line), Table 1) | MIC (P. morganii; [7]) | MIC (P. mirabilis; [8]) | ED50 (E. coli Juhl; [9]) | other results |
| --- | --- | --- | --- | --- | --- | --- | --- | --- | --- | --- | --- | --- | --- | --- | --- | --- |
| NC(=O)OCC1=C(C(=O)O)N2C(=O)C(NC(=O)[C@H](NC(=O)c3cnc4cccnc4c3O)c3ccc(O)cc3)C2SC1 (single isomer, unassigned) [BB-S530, Sodium 7-[D-(-)-α-(4-hydroxy-1,5-naphthyridine-3-carboxamido)-α-(p-hydroxyphenyl)acetamido]-3-carbamoyloxymethyl-3-cephem-4-carboxylate] | 0.4 µg/mL | 12.5 µg/mL | 100 µg/mL | 100 µg/mL | 1.8 mg/kg | – | – | – | – | – | – | – | – | – | – | MIC (S. enteritidis; Salmonella enterica, S. enteritidis A9531, Table 6, read-out: MIC): 0.8 µg/mL; Mean % Relative Activity (SPBC = 100%) ([1]; Table 5): 141%; Mean % Relative Activity (SPBC = 100%) ([2]; Table 5): 108%; MIC (S. marcescens; Serratia marcescens, S. marcescens A20019, Table 6, read-out: MIC): > 100 µg/mL; MIC (P. morganii; Morganella morganii, P. morganii A9553, Table 6, read-out: MIC): > 100 µg/mL; MIC (P. mirabilis; Proteus mirabilis, P. mirabilis A9900, Table 6, read-out: MIC): 6.3 µg/mL |
| CC(=O)OCC1=C(C(=O)O)N2C(=O)C(NC(=O)C(NC(=O)c3cnc4cccnc4c3O)c3ccccc3)C2SC1 (centres unmarked) [BB-S514] | – | – | – | – | – | 6.3 µg/mL (≈ 10.9 µM) | 71% | 96% | > 100 µg/mL | 25 µg/mL (≈ 43.3 µM) | 50 µg/mL (≈ 86.6 µM) | 25 µg/mL (≈ 43.3 µM) | > 100 µg/mL | 0.8 µg/mL (≈ 1.39 µM) | – | – |
| NC(=O)OCC1=C(C(=O)O)N2C(=O)C(NC(=O)[C@H](NC(=O)c3cnc4cccnc4c3O)c3ccccc3)[C@H]2SC1 (stereo partly drawn) [BB-S520, Sodium 7-[D-α-(4-hydroxy-1,5-naphthyridine-3-carboxamido)-α-phenylacetamido]-3-carbamoyloxymethyl-3-cephem-4-carboxylate] | – | – | – | – | – | 3.1 µg/mL | 200% | 179% | > 100 µg/mL | 12.5 µg/mL | 50 µg/mL | 25 µg/mL | > 100 µg/mL | 0.4 µg/mL | 1.8 mg/kg | Mean % Relative Activity (SPBC = 100%) ([1]; lot 1, Table 5): 200%; Mean % Relative Activity (SPBC = 100%) ([1]; lot 2, Table 5): 141%; Mean % Relative Activity (SPBC = 100%) ([2]; lot 1, Table 5): 179%; Mean % Relative Activity (SPBC = 100%) ([2]; lot 2, Table 5): 108%; concentration at 0.25 h ([3]; in vivo, 20 mg/kg): 13000 ng/mL; concentration at 0.5 h ([3]; in vivo, 20 mg/kg): 9000 ng/mL; concentration at 1 h ([3]; in vivo, 20 mg/kg): 3700 ng/mL; concentration at 0.25 h ([3]; in vivo, 40 mg/kg): 25000 ng/mL; concentration at 0.5 h ([3]; in vivo, 40 mg/kg): 20000 ng/mL; concentration at 1 h ([3]; in vivo, 40 mg/kg): 7000 ng/mL; concentration at 2 h ([3]; in vivo, 40 mg/kg): 1000 ng/mL |
| CC1(C)S[C@@H]2[C@H](NC(=O)C(c3ccccc3)S(=O)(=O)O)C(=O)N2[C@H]1C(=O)O (some centres unmarked) [Sulbenicillin, sulbenicillin] | 3.1 µg/mL (≈ 7.48 µM) | 12.5 µg/mL (≈ 30.2 µM) | > 100 µg/mL | 12.5 µg/mL (≈ 30.2 µM) | 8.5 mg/kg | 1.6 µg/mL (≈ 3.86 µM) | – | – | 6.3 µg/mL (≈ 15.2 µM) | 12.5 µg/mL (≈ 30.2 µM) | > 100 µg/mL | 12.5 µg/mL (≈ 30.2 µM) | > 100 µg/mL | 0.8 µg/mL (≈ 1.93 µM) | 9.5 mg/kg | MIC (S. enteritidis; S. enteritidis A9531, Table 6): 1.6 µg/mL (≈ 3.86 µM); MIC (S. marcescens; S. marcescens A20019, Table 6): 6.3 µg/mL (≈ 15.2 µM); concentration at 0.25 h ([3]; blood, 20 mg/kg, subcutaneous, 20 Mgm./Kg., 0.25 hours, read-out: Blood Levels): 9800 ng/mL; concentration at 0.5 h ([3]; blood, 20 mg/kg, subcutaneous, 20 Mgm./Kg., 0.5 hours, read-out: Blood Levels): 7500 ng/mL; concentration at 1 h ([3]; blood, 20 mg/kg, subcutaneous, 20 Mgm./Kg., 1.0 hours, read-out: Blood Levels): 1200 ng/mL; concentration at 0.25 h ([3]; blood, 40 mg/kg, subcutaneous, 40 Mgm./Kg., 0.25 hours, read-out: Blood Levels): 22000 ng/mL; concentration at 0.5 h ([3]; blood, 40 mg/kg, subcutaneous, 40 Mgm./Kg., 0.5 hours, read-out: Blood Levels): 14000 ng/mL; concentration at 1 h ([3]; blood, 40 mg/kg, subcutaneous, 40 Mgm./Kg., 1.0 hours, read-out: Blood Levels): 5000 ng/mL; concentration at 2 h ([3]; blood, 40 mg/kg, subcutaneous, 40 Mgm./Kg., 2.0 hours, read-out: Blood Levels): < 1000 ng/mL; MIC (P. morganii; P. morganii A9553, Table 6): > 100 µg/mL; MIC (P. mirabilis; P. mirabilis A9900, Table 6): 0.8 µg/mL (≈ 1.93 µM) |
